According to ChEMBL document CHEMBL4017474, “A calcineurin antifungal strategy with analogs of FK506” (Bioorg Med Chem Lett, 2017):
In brackets after ≈: the same amount, converted by molar mass. Activity calls are given as the source filed them. The rule behind the calls is not given here.

Assays:
[1] = molecular target: T1, Peptidyl-prolyl cis-trans isomerase FKBP1A (Homo sapiens, UniProt P62942); assay: (§1) Antagonist activity at recombinant human N-terminal His6-tagged FKBP12 expressed in Escherichia coli assessed as inhibition of FK506 mediated FKBP12 binding to calcineurin using […] pretreated for 1 hr followed by substrate addition measured after 1 hr by biomol green dye based spectrophotometric method
[2] = system: PBMC; assay: Reversal of FK506-induced inhibition of cell proliferation in concanavalin A stimulated human PBMC at 1 uM measured after 72 hrs by CellTiter-Glo assay relative to control; assay type: functional; design: scale not given: the % may be the effect or the level left
[3] = molecular target: T1, Peptidyl-prolyl cis-trans isomerase FKBP1A; assay: Antagonist activity at human FKBP12 measured after 30 mins by fluorescein labelled SLF tracer based fluorescence polarization assay
[4] = system: PBMC; assay: Antiproliferative activity against concanavalin A stimulated human PBMC at 1 to 2 ug/ml measured after 72 hrs by CellTiter-Glo assay; assay type: cell-based
[5] = system: Aspergillus fumigatus; assay: Antifungal activity against Aspergillus fumigatus up to 25 ug/ml measured after 48 hrs by broth dilution method; assay type: functional
[6] = system: HepG2; assay: Cytotoxicity against human HepG2 cells; assay type: cell-based
[7] = system: Jurkat; assay: Immunosuppressive activity in PMA/ionomycin stimulated human Jurkat T cells assessed as suppression of IL2 production pretreated for 15 to 30 mins followed by PMA/ionomycin addition measured after 18 to 20 hrs by ELISA; assay type: cell-based
[8] = molecular target: T1, Peptidyl-prolyl cis-trans isomerase FKBP1A; assay: as §1, with “of” for “of FK506 mediated”, “calcineurin at […]” for “calcineurin”
[9] = system: PBMC; assay: Permeability across human PBMC at 1 uM; assay type: ADME, cell-based
[10] = system: Vero 76; assay: Cytotoxicity against African green monkey Vero 76 cells; assay type: cell-based; conditions: Chlorocebus sabaeus
[11] = system: Aspergillus fumigatus; assay: Antifungal activity against Aspergillus fumigatus assessed as spore germination at 12.5 ug/ml measured after 48 hrs in presence of FK506 by broth dilution method relative to control; assay type: functional
[12] = Antagonist activity at Aspergillus fumigatus FKBP12 measured after 30 mins by fluorescein labelled SLF tracer based fluorescence polarization assay
[13] = Volume of distribution at steady state in mouse at 3 mg/kg, iv; assay type: ADME, organism-based; conditions: in vivo, read-out: Vdss
[14] = system: Cryptococcus neoformans; assay: Antifungal activity against Cryptococcus neoformans by broth macrodilution method; assay type: functional
[15] = system: Aspergillus fumigatus; assay: Antifungal activity against Aspergillus fumigatus by broth macrodilution method; assay type: functional
[16] = AUClast in mouse at 3 mg/kg, iv; assay type: ADME, organism-based; design: dose 3 mg/kg, time 0 - last, route intravenous; conditions: in vivo
[17] = Terminal half-life in mouse at 3 mg/kg, iv; assay type: ADME, organism-based; conditions: in vivo, read-out: beta t1/2 (converted)
[18] = Clearance in mouse at 3 mg/kg, iv; assay type: ADME, organism-based; conditions: in vivo
[19] = Tmax in mouse at 10 mg/kg, po; assay type: ADME, organism-based; conditions: in vivo
[20] = Cmax in mouse at 10 mg/kg, po; assay type: ADME, organism-based; design: dose 10 mg/kg, route oral; conditions: in vivo
[21] = AUClast in mouse at 10 mg/kg, po; assay type: ADME, organism-based; design: dose 10 mg/kg, time 0 - last, route oral; conditions: in vivo

T1 sequence (P62942 whole entry): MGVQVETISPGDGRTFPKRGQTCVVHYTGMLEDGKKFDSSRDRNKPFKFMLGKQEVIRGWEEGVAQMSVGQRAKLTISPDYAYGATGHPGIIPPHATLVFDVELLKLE

SMILES | Activity [2] | IC50 [3] | Activity [4] | Activity [5] | IC50 [6] | IC50 [7] | inhibition [8] | permeability [9] | IC50 [10] | Activity [11] | IC50 [12] | Vd [13] | AUC(0-t) [16] | half-life [17] | clearance [18] | other results
CO[C@H]1C[C@@H](C)C/C(C)=C/[C@@H](CC(=O)N2CCN(C)CC2)C(=O)C[C@H](O)[C@@H](C)[C@@H](/C(C)=C/[C@@H]2CC[C@@H](O)[C@H](OC)C2)OC(=O)[C@@H]2CCCCN2C(=O)C(=O)[C@]2(O)O[C@H]1[C@@H](OC)C[C@H]2C | 102.8% | 12.6 nM | Non-Toxic | inactive | > 100000 nM | > 10000 nM | inactive | 100% | > 100000 nM | 43.1% | 16.8 nM | – | – | – | – | IC50 [1]: 1100 nM
C=CC[C@@H]1/C=C(\C)C[C@H](C)C[C@H](OC)[C@H]2O[C@@](O)(C(=O)C(=O)N3CCCC[C@H]3C(=O)O[C@H](/C(C)=C/[C@@H]3CC[C@@H](O)[C@H](OC)C3)[C@H](C)[C@@H](O)CC1=O)[C@H](C)C[C@@H]2OC [TACROLIMUS ANHYDROUS] | – | – | – | – | > 100000 nM | 360 nM | inactive | – | > 100000 nM | – | 18.4 nM | 1.8 L/kg | 1620 ng·h/mL | 57.1 min | 29.5 mL/min/kg | MIC [14]: 0.01 µg/mL (≈ 0.0124 µM); MIC [15]: 0.025 µg/mL (≈ 0.0311 µM)
CO[C@H]1C[C@@H](C)C/C(C)=C/[C@@H](CCCSCCO)C(=O)C[C@H](O)[C@@H](C)[C@@H](/C(C)=C/[C@@H]2CC[C@@H](O)[C@H](OC)C2)OC(=O)[C@@H]2CCCCN2C(=O)C(=O)[C@]2(O)O[C@H]1[C@@H](OC)C[C@H]2C | 96.5% | 27 nM | Non-Toxic | inactive | > 100000 nM | > 10000 nM | inactive | 100% | > 100000 nM | 37.5% | – | 1.17 L/kg | 2110 ng·h/mL | 47.6 min | 22.8 mL/min/kg | Tmax [19]: 30 min; Cmax [20]: 1640 ng/mL; AUC(0-t) [21]: 2710 ng·h/mL
